For experiment [1], the target named is T1, USP7 (Homo sapiens, UniProt Q93009, C315A).
T1 construct: 0.25 nM His-His-USP7 (aa208-560, |C315A|) was incubated with compound; His-His (N)
Put plainly: Inhibition of USP7 by Fluorescence Intensity (FLINT) readings, Ubiquitin-Rhodamine-110 substrate. The format is biochemical. The note with it: 0.25 nM His-His-USP7 (aa208-560), 60 minutes at 30° C. preincubation; Ki determined from IC50 according to Cer et al. The procedure: USP7 activity was measured using Rhodamine-110 c-terminal labelled Ubiquitin as a substrate (UbiQ Bio), Incubation with USP7 results in the release of Rhodamine-110 leading to an increase in fluorescence which can be used in the continuous measurement of USP7 activity.
The USP7 reactions were performed in a 50 μL volume, in 384 well black solid low binding plates (Corning #3575). The reaction buffer consisted of 100 mM Bicine pH 8.0, 0.01% TritonX 100, 1 mM TCEP, and 10% DMSO.
0.25 nM His-His-USP7 (aa208-560, |C315A|) was incubated with compound (final concentration 10% DMSO) for 60 minutes at 30° C. The reaction was then initiated by the addition of 50) nM Ubiquitin-Rhodamine-110 substrate or 4 μM Ubiquitin-Rhodamine-110 substrate and the plate read every 3 minutes for 21 minutes to measure the release of Rhodamine-110. Fluorescence Intensity (FLINT) readings were measured using a Biomek Neo plate reader (Ex.485 nm, Em.535 nm).
The inhibition of increasing doses of compound was expressed as a percentage reduction in kinetic rate compared to the kinetic rates established between ‘DMSO only’ and ‘total inhibition’ controls (no USP7). The inhibitory concentrations that gave a 50% reduction in kinetic rate (IC50) were determined, from 11-point dose response curves, in XL-Fit using a 4-Parameter Logistic Model 205 (Sigmoidal Dose-Response Model). The K, values were determined from the IC50 values according to Cer et al. Nucleic Acids Res. 2009, July 1; 37 (WebServer issue): W441-W445.

Experiment [2] relates to Z138 mantle cell lymphoma tumour cell lines. Put plainly: In vitro cytotoxicity, MTT assay. The format is cell-based. The note with it: Homo sapiens, Z-138; Z138 cells, exposed to the test compounds for 96 hours. The procedure:
The cytotoxicity studies were evaluated by MTT [3-(4,5-dimethylthiaxol-2-yl)-2,5-diphenyltetrazolium bromide|assay and carried out on Z138 mantle cell lymphoma tumour cell lines. The cells are distributed onto microplates and exposed to the test compounds for 96 hours. MTT is then added for 4 hours and converted by NAD(P)H-dependent cellular oxidoreductase enzymes in forma/an, which has a purple color. The viable cell number is proportional to the production of formazan salts and cell viability can be quantified by the absorbance of the solution at 540 nm with a spectrophotometer (Carmichael et al., Cancer Res. 1987, 47, 936-942).

Each structure is given as a SMILES string.

T1 sequence (Q93009 208-560 C315A): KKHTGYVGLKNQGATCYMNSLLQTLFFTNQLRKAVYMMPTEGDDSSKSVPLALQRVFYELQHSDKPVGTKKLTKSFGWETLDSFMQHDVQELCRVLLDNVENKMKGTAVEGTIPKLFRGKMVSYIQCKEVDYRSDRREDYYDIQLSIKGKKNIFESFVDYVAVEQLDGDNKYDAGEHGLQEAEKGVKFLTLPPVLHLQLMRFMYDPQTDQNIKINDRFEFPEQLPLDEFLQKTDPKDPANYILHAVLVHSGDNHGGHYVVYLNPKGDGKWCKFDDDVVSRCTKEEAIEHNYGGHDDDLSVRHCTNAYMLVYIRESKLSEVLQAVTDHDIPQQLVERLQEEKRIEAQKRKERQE

For the compound `Cc1cnc(CN2CC[C@@H](C(=O)N3CC[C@](O)(Cn4cnc(Oc5cccc(C(F)(F)F)c5)c(N)c4=O)C(F)(F)C3)[C@H](c3ccccc3)C2)cn1` [Example 144, 5-amino-3-{[(4S)-3,3-difluoro-4-hydroxy-1-[(3R,4R)-1-((5-methylpyrazin-2-yl)methyl]-3-phenyl-piperidine-4-carbonyl]-4-piperidyl]methyl]-6-[3-(trifluoromethyl)phenoxy]pyrimidin-4-one], in experiment [1], the affinity, expressed as Ki, was 22 nM. Also, in experiment [2], the IC50 (as a rule, the concentration that gives 50% inhibition) turned out to be 80.2 nM.
The like results for `Cc1ccc(-c2cccc(NC(=O)N3CC[C@@H](C(=O)N4CCC(O)(Cn5cnc(Oc6ccc(F)cc6)c(N)c5=O)CC4)[C@H](c4ccccc4)C3)c2)cn1` [Example 85, (3R,4R)-4-[4-[[5-amino-4-(4-fluorophenoxy)-6-oxo-pyrimidin-1-yl]methyl]-4-hydroxy-piperidine-1-carbonyl]-N-[3-(6-methyl-3-pyridyl)phenyl]-3-phenyl-piperidine-1-carboxamide] were, in that order, 9.9 nM and 34 nM.
As for `Cn1c(C(=O)N2CC[C@@H](C(=O)N3CCC(O)(Cn4cnc(Oc5ccc(F)cc5)c(N)c4=O)CC3)[C@H](c3ccccc3)C2)cnc1Br` [Example 95, 5-amino-3-({1-[(3R,4R)-1-(2-bromo-1-methyl-11H-imidazole-5-carbonyl)-3-phenylpiperidine-4-carbonyl]-4-hydroxypiperidin-4-yl}methyl)-6-(4-fluorophenoxy)pyrimidin-4(3H)-one], in experiment [1], the Ki (commonly the equilibrium dissociation constant of an inhibitor or competing ligand from its target) was determined as 21 nM. For the same compound, in experiment [2], the IC50 is 27 nM.
`Nc1c(Oc2ccc(F)cc2)ncn(CC2(O)CCN(C(=O)[C@@H]3CCN(C(=O)c4cncc(Br)c4)C[C@H]3c3ccccc3)CC2)c1=O` [Example 33, 5-amino-3-({1-[(3R,4R)-1-(5-bromopyridine-3-carbonyl)-3-phenylpiperidine-4-carbonyl]-4-hydroxypiperidin-4-yl}methyl)-6-(4-fluorophenoxy)pyrimidin-4(3)-one]: affinity in experiment [1] was put at a Ki of 7.77 nM. In experiment [2], this compound displayed an IC50 of 2.55 nM.
The like results for `Cc1nc(C2CCCNC2)sc1C(=O)N1CC[C@@H](C(=O)N2CCC(O)(Cn3cnc(Oc4ccc(F)cc4)c(N)c3=O)CC2)[C@H](c2ccccc2)C1` (stereo partly drawn) [Example 172, 5-amino-6-(4-fluorophenoxy)-3-[[4-hydroxy-1-[(3R,4R)-1-[4-methyl-2-(3-piperidyl)thiazole-5-carbonyl]-3-phenyl-piperidine-4-carbonyl]-4-piperidyl]methyl]pyrimidin-4-one] were, in that order, 7.64 nM and 385 nM.
Regarding `Cc1cc(C)nc(CN2CC[C@@H](C(=O)N3CC[C@](O)(Cn4cnc(Oc5ccc(F)cc5)c(N)c4=O)C(F)(F)C3)[C@H](c3ccccc3)C2)n1` [Example 206, 5-amino-3-[[(4S)-1-[(3R,4R)-1-[(4,6-dimethylpyrimidin-2-yl)methyl]-3-phenyl-piperidine-4-carbonyl]-3,3-difluoro-4-hydroxy-4-piperidyl]methyl]-6(4-fluorophenoxy)pyrimidin-4-one], the Ki in experiment [1] is 37.2 nM. Moreover, half-maximal inhibition in experiment [2] (IC50) was put at 20.5 nM.
As for `Cc1cc(C(=O)N2CC[C@@H](C(=O)N3CC[C@](O)(Cn4cnc(Oc5ccc(F)cc5)c(N)c4=O)C(F)(F)C3)[C@H](c3ccccc3)C2)nn1-c1ccccc1` [Example 120, 5-amino-3-({(4S)-3,3-difluoro-4-hydroxy-1-[(3R,4R)-1-(5-methyl-1-phenyl-1H-pyrazole-3-carbonyl)-3phenylpiperidine-4-carbonyl]piperidin-4-yl)methyl)-6(4-fluorophenoxy)pyrimidin-4(3H)-one], affinity in experiment [1] was put at a Ki of 45.4 nM. In experiment [2], this compound displayed an IC50 of 41.3 nM.
In experiment [1], `CCOC(=O)C(c1ccccc1)N1CC[C@@H](C(=O)N2CCC(O)(Cn3cnc(Oc4ccc(F)cc4)c(N)c3=O)CC2)[C@H](c2ccccc2)C1` (some centres unmarked) [Example 70] came in with a Ki of 63 nM. The same compound returned an IC50 in experiment [2] of 34 nM.
In turn, `NCc1ccc(Oc2ncn(C[C@@]3(O)CCN(C(=O)[C@@H]4CCN(C(=O)c5cc(Cl)cc(Cl)c5)C[C@H]4c4ccccc4)CC3(F)F)c(=O)c2N)cc1` [Example 222, 5-amino-6-[4-(aminomethyl)phenoxy]-3-[[(4S)-1-[(3R,4R)-1-(3,5-dichlorobenzoyl)-3-phenyl-piperidine-4-carbonyl]-3,3-difluoro-4-hydroxy-4-piperidyl]methyl]pyrimidin-4-one] showed a Ki in experiment [1] of 0.558 nM. Also, the IC50 in experiment [2] was 74.2 nM.
Regarding `Cc1nc(Br)sc1C(=O)N1CC[C@@H](C(=O)N2CCC(O)(Cn3cnc(Oc4cccc(C(F)(F)F)c4)c(N)c3=O)CC2)[C@H](c2ccccc2)C1` [Example 100, 5-amino-3-[[1-[(3R,4R)-1-(2-bromo-4-methyl-thiazole-5-carbonyl)-3-phenyl-piperidine-4-carbonyl]-4-hydroxy-4-piperidyl]methyl]-6-[3-(trifluoromethyl)phenoxy]pyrimidin-4-one], the affinity in experiment [1] corresponds to a Ki of 24 nM. The compound further registered an IC50 in experiment [2] of 47.6 nM.
Take `Cc1ccc(-c2sc(C(=O)N3CC[C@@H](C(=O)N4CCC(O)(Cn5cnc(Oc6ccc(F)cc6)c(N)c5=O)CC4)[C@H](c4ccccc4)C3)c3c2OCCO3)cn1` [Example 68, 5-amino-6-(4-fluorophenoxy)-3-[(4-hydroxy-1-{(3R,4R)-1-[7-(6-methylpyridin-3-yl)-2,3-dihydrothieno[3,4-b][1,4]dioxine-5-carbonyl]-3-phenylpiperidine-4-carbonyl]piperidin-4-yl)methyl]pyrimidin-4(3H)-one]: the affinity in experiment [1], expressed as Ki, was 4 nM. For the same compound, inhibition in experiment [2] was half-maximal at 6.67 nM (IC50).
The corresponding values for `Nc1c(Oc2ccccc2)ncn(CC2(O)CCN(C(=O)[C@@H]3CCN(C4(c5ccccc5F)COC4)C[C@H]3c3ccccc3)CC2)c1=O` [Example 114] are 66 nM and 22 nM.
In turn, `Cc1ccc(-c2cc(F)c(C(=O)N3CC[C@@H](C(=O)N4CCC(O)(Cn5cnc(Oc6ccc(F)cc6)c(N)c5=O)CC4)[C@H](c4ccccc4)C3)s2)cn1` [Example 40] showed a Ki in experiment [1] of 4.19 nM. Also, the IC50 in experiment [2] was found to be 1.7 nM.
The corresponding values for `Cc1nc(-c2ccc(C(F)(F)F)nc2)sc1C(=O)N1CC[C@@H](C(=O)N2CCC(O)(Cn3cnc(Oc4cccc(C(F)(F)F)c4)c(N)c3=O)CC2)[C@H](c2ccccc2)C1` [Example 125, 5-amino-3-[[4-hydroxy-1-[(3R,4R)-1-[4-methyl-2-[6-(trifluoromethyl)-3-pyridyl]thiazole-5-carbonyl]-3-phenyl-piperidine-4-carbonyl]-4-piperidyl]methyl]-6-[3-(trifluoromethyl)phenoxy]pyrimidin-4-one] are 7.98 nM and 26.6 nM.
The like results for `Cc1nc(-c2ccc(F)cc2)sc1C(=O)N1CC[C@@H](C(=O)N2CCC(O)(Cn3cnc(Oc4ccc(F)cc4)c(N)c3=O)CC2)[C@H](c2ccccc2)C1` [Example 48, 5-amino-6-(4-fluorophenoxy)-3-[(1-((3R,4R)-1-[2-(4-fluorophenyl)-4-methyl-1,3-thiazole-5-carbonyl]-3-phenylpiperidine-4-carbonyl}-4-hydroxypiperidin-4-yl)methyl]pyrimidin-4(3H)-one] were, in that order, 5.2 nM and 3 nM.
The like results for `Nc1c(Oc2ccc(F)cc2)ncn(CC2(O)CCN(C(=O)[C@@H]3CCN(C(=O)c4cc(F)cc(Br)c4)C[C@H]3c3ccccc3)CC2)c1=O` [Example 98] were, in that order, 3.05 nM and 7 nM.

The record behind these values is patent US20210355106A1, “NEW AMINO-PYRIMIDONYL-PIPERIDINYL DERIVATIVES, A PROCESS FOR THEIR PREPARATION AND PHARMACEUTICAL COMPOSITIONS CONTAINING THEM” (LES LABORATOIRES SERVIER, priority 2018, published 2021).
